Columns and labels:
[1] = test system: Glomerella lacenarium (Colletotrichum lagenarium); assay: Glomerella lagenarium liquid culture / cucumber / preventative (anthracnose); format: cell-based; details: Colletotrichum orbiculare; 20 ppm in the applied formulation; liquid culture (PDB), growth inhibition measured photometrically 3 to 4 days after application; compared to untreated; read-out: disease control
Method in brief: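 Conidia from cryogenic storage were mixed into potato dextrose broth. This was added to compound diluted from DMSO into 0.025% Tween20, tested at 20 ppm. Plates were incubated in the dark at 24 °C and 96% relative humidity, and growth was read photometrically after 2–7 days as % activity versus untreated check.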

[2] = test system: Phakopsora pachyrhizi; assay: Phakopsora pachyrhizi / soybean / leaf disc preventative (Asian soybean rust); format: in vivo; details: foliar, 200 ppm in the applied formulation, soybean leaf disks, compared to untreated, read-out: disease control
Description: Leaf disks or leaf segments of various plant species are cut from plants grown in a greenhouse. The cut leaf disks or segments are placed in multiwell plates (24-well format) onto water agar. The leaf disks are sprayed with a test solution before (preventative) or after (curative) inoculation. Compounds to be tested are prepared as DMSO solutions (max. 10 mg/ml) which are diluted to the appropriate concentration with 0.025% Tween20 just before spraying. The inoculated leaf disks or segments are incubated under defined conditions (temperature, relative humidity, light, etc.) according to the respective test system. A single evaluation of disease level is carried out 3 to 14 days after inoculation, depending on the pathosystem. Percent disease control relative to the untreated check leaf disks or segments is then calculated.
Soybean leaf disks are placed on water agar in multiwell plates (24-well format) and sprayed with the formulated test compound diluted in water. One day after application leaf discs are inoculated by spraying a spore suspension on the lower leaf surface. After an incubation period in a climate cabinet of 24-36 hours in darkness at 20° C. and 75% rh leaf disc are kept at 20° C. with 12 h light/day and 75% rh. The activity of a compound is assessed as percent disease control compared to untreated when an appropriate level of disease damage appears in untreated check leaf disks (12 to 14 days after application).
The following compounds at 200 ppm in the applied formulation give at least 80% disease control in this test when compared to untreated control leaf disks under the same conditions, which show extensive disease development.

[3] = test system: Puccinia recondita f. Sp. Tritici; assay: Puccinia recondita f. sp. tritici / wheat / leaf disc preventative (brown rust); format: in vivo; details: foliar, 200 ppm in the applied formulation, wheat leaf segments cv. Kanzler, preventative (inoculated 1 day after application), compared to untreated, read-out: disease control
Method in brief: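 Wheat leaf segments (cv. Kanzler) on water agar were sprayed with test compound (DMSO stock diluted in 0.025% Tween20/water), then spore-inoculated 1 day later. Incubation at 19° C., 75% rh, 12 h light/12 h dark; percent disease control versus untreated segments scored 7 to 9 days after application. Tested at 200 ppm.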

[4] = test system: Puccinia recondita f. Sp. Tritici; assay: Puccinia recondita f. sp. tritici / wheat / leaf disc curative (brown rust); format: in vivo; details: foliar, 24 h, 200 ppm in the applied formulation, wheat leaf segments cv. Kanzler, curative (applied 1 day after inoculation), compared to untreated, read-out: disease control
Method in brief: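 Read-out is percent disease control relative to untreated segments, assessed 6 to 8 days after treatment once check disease is adequate. Kanzler wheat leaf segments on agar receive fungal spores, then test compound (DMSO stock diluted in 0.025% Tween20 or water) 1 day later, under 19° C and 75% relative humidity.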

CC(C)C(=O)NCc1ccc(-c2noc(C(F)(F)F)n2)c(F)c1 [Compound 1.77, N-[[3-fluoro-4-[5-(trifluoromethyl)-1,2,4-oxadiazol-3-yl]phenyl]methyl]-2-methyl-propanamide]
≥ 80%: inhibition of growth at 20 ppm [1] | pest or weed control at 200 ppm [2] | pest or weed control at 200 ppm [3] | pest or weed control at 200 ppm [4]

CCCC(=O)NCc1ccc(-c2noc(C(F)(F)F)n2)c(F)c1 [Compound 1.78, N-[[3-fluoro-4-[5-(trifluoromethyl)-1,2,4-oxadiazol-3-yl]phenyl]methyl]butanamide]
≥ 80%: inhibition of growth at 20 ppm [1] | pest or weed control at 200 ppm [2] | pest or weed control at 200 ppm [3] | pest or weed control at 200 ppm [4]

COCC(=O)NCc1ccc(-c2noc(C(F)(F)F)n2)c(F)c1 [Compound 1.80]
≥ 80%: inhibition of growth at 20 ppm [1] | pest or weed control at 200 ppm [2] | pest or weed control at 200 ppm [3] | pest or weed control at 200 ppm [4]

CC(C)C(=O)NCCc1ccc(-c2noc(C(F)(F)F)n2)cc1 [Compound 1.83, 2-methyl-N-[2-[4-[5-(trifluoromethyl)-1,2,4-oxadiazol-3-yl]phenyl]ethyl]propanamide]
≥ 80%: inhibition of growth at 20 ppm [1] | pest or weed control at 200 ppm [2] | pest or weed control at 200 ppm [3] | pest or weed control at 200 ppm [4]

CCCC(=O)NCCc1ccc(-c2noc(C(F)(F)F)n2)cc1 [Compound 1.84, N-[2-[4-[5-(trifluoromethyl)-1,2,4-oxadiazol-3-yl]phenyl]ethyl]butanamide]
≥ 80%: inhibition of growth at 20 ppm [1] | pest or weed control at 200 ppm [2] | pest or weed control at 200 ppm [3] | pest or weed control at 200 ppm [4]

COCCC(=O)NCCc1ccc(-c2noc(C(F)(F)F)n2)cc1 [Compound 1.85, 3-methoxy-N-[2-[4-[5-(trifluoromethyl)-1,2,4-oxadiazol-3-yl]phenyl]ethyl]propanamide]
≥ 80%: inhibition of growth at 20 ppm [1] | pest or weed control at 200 ppm [2] | pest or weed control at 200 ppm [3] | pest or weed control at 200 ppm [4]

COCC(=O)NCCc1ccc(-c2noc(C(F)(F)F)n2)cc1 [Compound 1.86, 2-methoxy-N-[2-[4-[5-(trifluoromethyl)-1,2,4-oxadiazol-3-yl]phenyl]ethyl]acetamide]
≥ 80%: inhibition of growth at 20 ppm [1] | pest or weed control at 200 ppm [2] | pest or weed control at 200 ppm [3] | pest or weed control at 200 ppm [4]

CCC(C)C(=O)NCCc1ccc(-c2noc(C(F)(F)F)n2)cc1 (centres unmarked) [Compound 1.87, 2-methyl-N-[2-[4-[5-(trifluoromethyl)-1,2,4-oxadiazol-3-yl]phenyl]ethyl]butanamide]
≥ 80%: inhibition of growth at 20 ppm [1] | pest or weed control at 200 ppm [2] | pest or weed control at 200 ppm [3] | pest or weed control at 200 ppm [4]

COCCCC(=O)NCCc1ccc(-c2noc(C(F)(F)F)n2)cc1 [Compound 1.89, 4-methoxy-N-[2-[4-[5-(trifluoromethyl)-1,2,4-oxadiazol-3-yl]phenyl]ethyl]butanamide]
≥ 80%: inhibition of growth at 20 ppm [1] | pest or weed control at 200 ppm [2] | pest or weed control at 200 ppm [3] | pest or weed control at 200 ppm [4]

N#CCC(=O)NCCc1ccc(-c2noc(C(F)(F)F)n2)cc1 [Compound 1.90, 2-cyano-N-[2-[4-[5-(trifluoromethyl)-1,2,4-oxadiazol-3-yl]phenyl]ethyl]acetamide]
≥ 80%: inhibition of growth at 20 ppm [1] | pest or weed control at 200 ppm [2] | pest or weed control at 200 ppm [3] | pest or weed control at 200 ppm [4]

CC(=O)NCCc1ccc(-c2noc(C(F)(F)F)n2)cc1 [Compound 1.92, N-[2-[4-[5-(trifluoromethyl)-1,2,4-oxadiazol-3-yl]phenyl]ethyl]acetamide]
≥ 80%: inhibition of growth at 20 ppm [1] | pest or weed control at 200 ppm [2] | pest or weed control at 200 ppm [3] | pest or weed control at 200 ppm [4]

COCC(=O)NC(C)(C)c1ccc(-c2noc(C(F)(F)F)n2)cc1 [Compound 1.95, 2-methoxy-N-[1-methyl-1-[4-[5-(trifluoromethyl)-1,2,4-oxadiazol-3-yl]phenyl]ethyl]acetamide]
≥ 80%: inhibition of growth at 20 ppm [1] | pest or weed control at 200 ppm [2] | pest or weed control at 200 ppm [3] | pest or weed control at 200 ppm [4]

CC(C)COC(=O)NCc1ccc(-c2noc(C(F)(F)F)n2)cc1 [Compound 2.8, isobutyl N-[[4-[5-(trifluoromethyl)-1,2,4-oxadiazol-3-yl]phenyl]methyl]carbamate]
≥ 80%: inhibition of growth at 20 ppm [1] | pest or weed control at 200 ppm [2] | pest or weed control at 200 ppm [3] | pest or weed control at 200 ppm [4]

C=CCOC(=O)NCc1ccc(-c2noc(C(F)(F)F)n2)cc1 [Compound 2.10, allyl N-[[4-[5-(trifluoromethyl)-1,2,4-oxadiazol-3-yl]phenyl]methyl]carbamate]
≥ 80%: inhibition of growth at 20 ppm [1] | pest or weed control at 200 ppm [2] | pest or weed control at 200 ppm [3] | pest or weed control at 200 ppm [4]

CCCCOC(=O)NCc1ccc(-c2noc(C(F)(F)F)n2)cc1 [Compound 2.11, butyl N-[[4-[5-(trifluoromethyl)-1,2,4-oxadiazol-3-yl]phenyl]methyl]carbamate]
≥ 80%: inhibition of growth at 20 ppm [1] | pest or weed control at 200 ppm [2] | pest or weed control at 200 ppm [3] | pest or weed control at 200 ppm [4]

O=C(NCc1ccc(-c2noc(C(F)(F)F)n2)cc1)OCCCCCl [Compound 2.13, 4-chlorobutyl N-[[4-[5-(trifluoromethyl)-1,2,4-oxadiazol-3-yl]phenyl]methyl]carbamate]
≥ 80%: inhibition of growth at 20 ppm [1] | pest or weed control at 200 ppm [2] | pest or weed control at 200 ppm [3] | pest or weed control at 200 ppm [4]

CC(C)OC(=O)NCc1ccc(-c2noc(C(F)(F)F)n2)cc1 [Compound 2.14, isopropyl N-[[4-[5-(trifluoromethyl)-1,2,4-oxadiazol-3-yl]phenyl]methyl]carbamate]
≥ 80%: inhibition of growth at 20 ppm [1] | pest or weed control at 200 ppm [2] | pest or weed control at 200 ppm [3] | pest or weed control at 200 ppm [4]

O=C(NCc1ccc(-c2noc(C(F)(F)F)n2)cc1)OCCF [Compound 2.15, 2-fluoroethyl N-[[4-[5-(trifluoromethyl)-1,2,4-oxadiazol-3-yl]phenyl]methyl]carbamate]
≥ 80%: inhibition of growth at 20 ppm [1] | pest or weed control at 200 ppm [2] | pest or weed control at 200 ppm [3] | pest or weed control at 200 ppm [4]

O=C(NCc1ccc(-c2noc(C(F)(F)F)n2)cc1)OCCCCl [Compound 2.16, 3-chloropropyl N-[[4-[5-(trifluoromethyl)-1,2,4-oxadiazol-3-yl]phenyl]methyl]carbamate]
≥ 80%: inhibition of growth at 20 ppm [1] | pest or weed control at 200 ppm [2] | pest or weed control at 200 ppm [3] | pest or weed control at 200 ppm [4]

O=C(NCc1ccc(-c2noc(C(F)(F)F)n2)cc1)OCCCl [Compound 2.17, 2-chloroethyl N-[[4-[5-(trifluoromethyl)-1,2,4-oxadiazol-3-yl]phenyl]methyl]carbamate]
≥ 80%: inhibition of growth at 20 ppm [1] | pest or weed control at 200 ppm [2] | pest or weed control at 200 ppm [3] | pest or weed control at 200 ppm [4]

Source: patent US10501425B2, “Microbiocidal oxadiazole derivatives” (SYNGENTA PARTICIPATIONS AG, priority 2015, dated 2019)
